Test results published in US20220273607A1, “METHODS OF USING MODIFIED […] TREAT CANCER” (NORTHWESTERN UNIVERSITY, priority 2019, published 2022).

Key:
Format in all cases: cell-based
HepG2 cells = test: CellTiter Blue cytotoxicity with and without CD36 blocker SSO, HepG2; conditions: different compound concentrations and different concentrations of SSO, FIG. 5
HT-1080 cells = test: CellTiter Blue cytotoxicity with and without CD36 blocker SSO, HT-1080; conditions: different compound concentrations and different concentrations of SSO, FIG. 3
Experimental: The compound of Example 2 (ODDA-PTX) was compared with paclitaxel (PTX) in terms of cellular uptake. The comparison was carried out in HT-1080 cell culture using sulfosuccinimidyl oleate (SSO), a chemical blocker of fatty acid translocase/CD36:
Cytotoxicity of the compounds was evaluated using the CellTiter Blue (CTB) assay (Promega, cat G8081). Treatments of fatty acid-conjugates were prepared as 1000× serial stock dilutions in DMSO, then diluted into media for 1×, 0.1% DMSO treatment solutions. […]
Expression of CD36 in HT-1080 was validated using flow cytometry and a fluorophore-conjugated CD36 antibody (CD36, eFluor 660, clone: eBioNL07 (NL07), eBioscience). […] Cells were resuspended in a final volume of 100 μL resuspension and analyzed via flow cytometry for presence of CD36. […]
HT-1080 cells were plated in 96-well plates one day before treatment, at a seeding density of 10,000 cells/well. […] Fluorescence was measured at 590 nm with excitation at 560 nm using a Perkin Elmer EnSpire plate reader. Average background fluorescence readings of the experimental wells (three wells per treatment concentration). Viability was calculated as the average background-subtracted signal in a well compared to that of a negative control (cells treated with vehicle, […] in media). […]

MCF-7 cells = test: CellTiter Blue cytotoxicity with and without CD36 blocker SSO, MCF-7; conditions: different compound concentrations and different concentrations of SSO, FIG. 4

CC(=O)O[C@H]1C(=O)[C@@]2(C)[C@H]([C@H](OC(=O)c3ccccc3)[C@]3(O)C[C@H](OC(=O)[C@H](OC(=O)CCCCCCCCCCCCCCCCC(=O)O)[C@@H](NC(=O)c4ccccc4)c4ccccc4)C(C)=C1C3(C)C)[C@]1(OC(C)=O)CO[C@@H]1C[C@@H]2O [ODDA-PTX, Paclitaxel-C18 Diacid Conjugate]
change of percent viability of the cells with increasing concentration of the CD36 inhibitor (HepG2 cells): increasing the concentration of the CD36 inhibitor correlates with increasing percent viability | change of percent viability of the cells with increasing concentration of the CD36 inhibitor (HT-1080 cells): increasing the concentration of the CD36 inhibitor correlates with increasing percent viability | change of percent viability of the cells with increasing concentration of the CD36 inhibitor (MCF-7 cells): increasing the concentration of the CD36 inhibitor correlates with increasing percent viability
